Reference: patent US20230141101A1, “PDE4 INHIBITOR COMPOUND AND MEDICAL USE THEREOF” (Suzhou Longbotai Pharmaceuticals Co., Ltd., priority 2020, published 2023)

Key:
Type in all cases: biochemical
PDE4B1 = target: T1, PDE4B1 (Homo sapiens, UniProt Q07343); assay: PDE4 inhibitory activity assay (FAM-cAMP enzymatic reaction), PDE4B1
T1 construct: purchased BPS 60041
Summary of the method: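 Each isoform is incubated with test compound for 15 min at room temperature before FAM-cAMP substrate starts a 30-min reaction.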

PDE4A1A = target: T2, PDE4A1A (Homo sapiens, UniProt P27815); assay: PDE4 inhibitory activity assay (FAM-cAMP enzymatic reaction), PDE4A1A
T2 construct: purchased BPS 60040
Summary of the method: (§1)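 Read-out: fluorescence-based detection of FAM-cAMP turnover on a multilabel counter, with IC50 derived by fitting inhibition rates. The reaction ran 30 min at room temperature after a 15-min enzyme–compound preincubation, followed by stopping and 60 min further incubation.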

PDE4D2 = PDE4D2 (Homo sapiens, UniProt Q08499); assay: PDE4 inhibitory activity assay (FAM-cAMP enzymatic reaction), PDE4D2
Summary of the method: as §1

[1] = compared with Apremilast and Example 11 of WO2018036470 (WX011)

T1 sequence (Q07343 whole entry): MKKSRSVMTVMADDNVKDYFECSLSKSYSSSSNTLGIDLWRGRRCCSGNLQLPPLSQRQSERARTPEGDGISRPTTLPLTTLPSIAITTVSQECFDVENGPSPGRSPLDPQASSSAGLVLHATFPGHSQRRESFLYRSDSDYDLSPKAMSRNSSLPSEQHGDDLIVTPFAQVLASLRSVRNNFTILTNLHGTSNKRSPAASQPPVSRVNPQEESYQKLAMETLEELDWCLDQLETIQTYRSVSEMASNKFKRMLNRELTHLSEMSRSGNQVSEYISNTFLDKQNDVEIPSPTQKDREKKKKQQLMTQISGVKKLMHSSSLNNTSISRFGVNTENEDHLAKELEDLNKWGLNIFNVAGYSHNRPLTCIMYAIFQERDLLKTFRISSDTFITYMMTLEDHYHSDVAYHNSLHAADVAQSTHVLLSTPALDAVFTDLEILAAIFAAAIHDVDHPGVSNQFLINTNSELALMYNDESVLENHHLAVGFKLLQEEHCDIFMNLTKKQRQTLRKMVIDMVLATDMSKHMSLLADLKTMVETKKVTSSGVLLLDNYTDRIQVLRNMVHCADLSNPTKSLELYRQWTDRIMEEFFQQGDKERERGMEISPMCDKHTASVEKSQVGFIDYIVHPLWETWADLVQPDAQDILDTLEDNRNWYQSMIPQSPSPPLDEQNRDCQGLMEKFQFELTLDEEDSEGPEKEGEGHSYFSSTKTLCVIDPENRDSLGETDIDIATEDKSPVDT
Sequence of PDE4D2 (Q08499 303-809): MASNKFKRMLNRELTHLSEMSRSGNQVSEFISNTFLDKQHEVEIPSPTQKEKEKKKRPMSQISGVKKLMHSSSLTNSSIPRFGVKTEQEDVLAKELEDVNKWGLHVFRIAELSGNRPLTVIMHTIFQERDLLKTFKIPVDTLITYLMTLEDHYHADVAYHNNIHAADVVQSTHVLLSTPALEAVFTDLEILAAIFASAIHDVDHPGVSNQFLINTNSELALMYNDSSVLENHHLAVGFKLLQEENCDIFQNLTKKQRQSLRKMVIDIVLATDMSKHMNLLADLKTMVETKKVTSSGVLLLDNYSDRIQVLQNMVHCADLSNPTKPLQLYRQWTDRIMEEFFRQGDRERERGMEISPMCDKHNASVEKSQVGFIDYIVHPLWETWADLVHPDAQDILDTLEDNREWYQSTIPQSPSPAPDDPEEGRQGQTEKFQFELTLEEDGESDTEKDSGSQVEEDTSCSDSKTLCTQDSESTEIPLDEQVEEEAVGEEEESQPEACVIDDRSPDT
T2 sequence (P27815 1-647 isoform P27815-4): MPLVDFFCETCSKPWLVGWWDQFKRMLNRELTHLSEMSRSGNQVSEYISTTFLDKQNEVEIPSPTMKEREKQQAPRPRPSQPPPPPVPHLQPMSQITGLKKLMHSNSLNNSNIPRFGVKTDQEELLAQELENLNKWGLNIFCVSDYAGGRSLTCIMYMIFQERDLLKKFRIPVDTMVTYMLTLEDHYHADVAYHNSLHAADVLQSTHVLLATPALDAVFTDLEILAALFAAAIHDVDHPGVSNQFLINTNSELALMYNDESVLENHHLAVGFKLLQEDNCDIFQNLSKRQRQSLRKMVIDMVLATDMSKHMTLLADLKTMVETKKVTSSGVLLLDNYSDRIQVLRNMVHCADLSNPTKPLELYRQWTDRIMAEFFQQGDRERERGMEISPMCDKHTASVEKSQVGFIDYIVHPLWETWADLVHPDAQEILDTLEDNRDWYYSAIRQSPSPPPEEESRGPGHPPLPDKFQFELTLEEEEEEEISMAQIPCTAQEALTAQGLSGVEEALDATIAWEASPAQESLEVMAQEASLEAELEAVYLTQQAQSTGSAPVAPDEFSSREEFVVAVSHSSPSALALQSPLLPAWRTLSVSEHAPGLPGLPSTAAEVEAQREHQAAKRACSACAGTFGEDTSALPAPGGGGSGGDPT

CCOc1nc([C@@H](CS(C)(=O)=O)n2c(=O)[nH]c3cc(-c4ccccc4CC)ccc32)ccc1OC [Ex. 150, (S)-1-(1-(6-ethoxy-5-methoxypyridin-2-yl)-2-(methylsulfonyl)ethyl)-5-(2-ethylphenyl)-1H-benzo[d]imidazol-2(3H)-one]
PDE4 B1 inhibitory effect at 20 nM (PDE4B1): + | PDE4 A1 inhibitory effect at 20 nM (PDE4A1A): + | PDE4 D2 inhibitory effect at 20 nM (PDE4D2): +

CCOc1nc([C@@H](CS(C)(=O)=O)n2c(=O)n(C)c3c(C)c(-c4ccccc4C)cnc32)ccc1OC(F)F [Ex. 68, (S)-3-(1-(5-(difluoromethoxy)-6-ethoxypyridin-2-yl)-2-(methylsulfonyl)ethyl)-1,7-dimethyl-6-(o-methylphenyl)-1H-imidazo[4,5-b]pyridin-2(3H)-one]
PDE4 B1 inhibitory effect at 20 nM (PDE4B1): + | PDE4 A1 inhibitory effect at 20 nM (PDE4A1A): + | PDE4 D2 inhibitory effect at 20 nM (PDE4D2): +

CCOc1nc([C@@H](CS(C)(=O)=O)n2c(=O)n(C)c3cc(-c4cc(F)c(F)cc4F)cnc32)ccc1OC [Ex. 97, (S)-6-(2,4,5-trifluorophenyl)-3-(1-(6-ethoxy-5-methoxypyridin-2-yl)-2-(methylsulfonyl)ethyl)-1-methyl-1H-imidazo[4,5-b]pyridin-2(3H)-one]
PDE4 B1 inhibitory effect at 20 nM (PDE4B1): + | PDE4 A1 inhibitory effect at 20 nM (PDE4A1A): + | PDE4 D2 inhibitory effect at 20 nM (PDE4D2): +

CCOc1nc([C@H](CS(C)(=O)=O)n2c(=O)[nH]c3cc(-c4ccccc4F)ccc32)ccc1OC [Ex. 134, (R)-1-(1-(6-ethoxy-5-methoxypyridin-2-yl)-2-(methylsulfonyl)ethyl)-5-(2-fluorophenyl)-1H-benzo[d]imidazol-2(3H)-one]
PDE4 B1 inhibitory effect at 20 nM (PDE4B1): + | PDE4 A1 inhibitory effect at 20 nM (PDE4A1A): + | PDE4 D2 inhibitory effect at 20 nM (PDE4D2): +

CCOc1nc([C@@H](CS(C)(=O)=O)n2c(=O)n(C)c3cc(-c4cc(C)ccc4C)ccc32)ccc1OC [Ex. 165, (S)-5-(2,5-dimethylphenyl)-1-(1-(6-ethoxy-5-methoxypyridin-2-yl)-2-(methylsulfonyl)ethyl)-3-methyl-1H-benzo[d]imidazol-2(3H)-one]
PDE4 B1 inhibitory effect at 20 nM (PDE4B1): + | PDE4 A1 inhibitory effect at 20 nM (PDE4A1A): + | PDE4 D2 inhibitory effect at 20 nM (PDE4D2): +

CCOc1nc([C@@H](CS(C)(=O)=O)n2c(=O)n(CC(F)F)c3c(C)c(-c4ccccc4C)cnc32)ccc1OC [Ex. 59, (S)-1-(2,2-difluoroethyl)-3-(1-(6-ethoxy-5-methoxypyridin-2-yl)-2-(methylsulfonyl)ethyl)-7-methyl-6-(o-methylphenyl)-1H-imidazo[4,5-b]pyridin-2(3H)-one]
PDE4 B1 inhibitory effect at 20 nM (PDE4B1): + | PDE4 A1 inhibitory effect at 20 nM (PDE4A1A): + | PDE4 D2 inhibitory effect at 20 nM (PDE4D2): +

CCOc1nc([C@@H](CS(C)(=O)=O)n2c(=O)[nH]c3cc(-c4ccccc4CC)cnc32)ccc1OC [Ex. 81, (S)-3-(1-(6-ethoxy-5-methoxypyridin-2-yl)-2-(methylsulfonyl)ethyl)-6-(2-ethylphenyl)-1H-imidazo[4,5-b]pyridin-2(3H)-one]
PDE4 B1 inhibitory effect at 20 nM (PDE4B1): + | PDE4 A1 inhibitory effect at 20 nM (PDE4A1A): + | PDE4 D2 inhibitory effect at 20 nM (PDE4D2): +

CCOc1nc([C@@H](CS(C)(=O)=O)n2c(=O)[nH]c3c(C)c(-c4cccc(F)c4F)cnc32)ccc1OC [Ex. 25, (S)-6-(2,3-difluorophenyl)-3-(1-(6-ethoxy-5-methoxypyridin-2-yl)-2-(methylsulfonyl)ethyl)-7-methyl-1H-imidazo[4,5-b]pyridin-2(3H)-one]
PDE4 B1 inhibitory effect at 20 nM (PDE4B1): + | PDE4 A1 inhibitory effect at 20 nM (PDE4A1A): + | PDE4 D2 inhibitory effect at 20 nM (PDE4D2): +

CCOc1nc([C@@H](CS(C)(=O)=O)n2c(=O)n(C)c3cc(-c4c(F)cccc4F)cnc32)ccc1OC [Ex. 89, (S)-6-(2,6-difluorophenyl)-3-(1-(6-ethoxy-5-methoxypyridin-2-yl)-2-(methylsulfonyl)ethyl)-1-methyl-1H-imidazo[4,5-b]pyridin-2(3H)-one]
PDE4 B1 inhibitory effect at 20 nM (PDE4B1): + | PDE4 A1 inhibitory effect at 20 nM (PDE4A1A): + | PDE4 D2 inhibitory effect at 20 nM (PDE4D2): +

CCOc1nc([C@H](CS(C)(=O)=O)n2c(=O)n(C)c3c(C)c(-c4ccccc4F)cnc32)ccc1OC [Ex. 22]
PDE4 B1 inhibitory effect at 20 nM (PDE4B1): − | PDE4 A1 inhibitory effect at 20 nM (PDE4A1A): − | PDE4 D2 inhibitory effect at 20 nM (PDE4D2): −

CCOc1nc([C@@H](CS(C)(=O)=O)n2c(=O)n(C)c3cc(-c4ccc(F)cc4)cnc32)ccc1OC [Ex. 128, (S)-3-(1-(6-ethoxy-5-methoxypyridin-2-yl)-2-(methylsulfonyl)ethyl)-6-(4-fluorophenyl)-1-methyl-1H-imidazo[4,5-b]pyridin-2(3H)-one]
PDE4 B1 inhibitory effect at 20 nM (PDE4B1): + | PDE4 A1 inhibitory effect at 20 nM (PDE4A1A): + | PDE4 D2 inhibitory effect at 20 nM (PDE4D2): +

CCOc1nc([C@@H](CS(C)(=O)=O)n2c(=O)[nH]c3c(-c4ccccc4C)cccc32)ccc1OC [Ex. 204, (S)-1-(1-(6-ethoxy-5-methoxypyridin-2-yl)-2-(methylsulfonyl)ethyl)-4-(o-methylphenyl)-1H-benzo[d]imidazol-2(3H)-one]
PDE4 B1 inhibitory effect at 20 nM (PDE4B1): + | PDE4 A1 inhibitory effect at 20 nM (PDE4A1A): + | PDE4 D2 inhibitory effect at 20 nM (PDE4D2): +

CCOc1nc([C@@H](CS(C)(=O)=O)n2c(=O)[nH]c3cc(-c4ccccc4OC)cnc32)ccc1OC [Ex. 83, (S)-3-(1-(6-ethoxy-5-methoxypyridin-2-yl)-2-(methylsulfonyl)ethyl)-6-(2-methoxyphenyl)-1H-imidazo[4,5-b]pyridin-2(3H)-one]
PDE4 B1 inhibitory effect at 20 nM (PDE4B1): + | PDE4 A1 inhibitory effect at 20 nM (PDE4A1A): + | PDE4 D2 inhibitory effect at 20 nM (PDE4D2): +

CCOc1nc([C@@H](CS(C)(=O)=O)n2c(=O)[nH]c3cc(-c4ccc(F)cc4)cnc32)ccc1OC [Ex. 78, (S)-3-(1-(6-ethoxy-5-methoxypyridin-2-yl)-2-(methylsulfonyl)ethyl)-6-(4-fluorophenyl)-1H-imidazo[4,5-b]pyridin-2(3H)-one]
PDE4 B1 inhibitory effect at 20 nM (PDE4B1): + | PDE4 A1 inhibitory effect at 20 nM (PDE4A1A): + | PDE4 D2 inhibitory effect at 20 nM (PDE4D2): +

CCOc1nc([C@@H](CS(C)(=O)=O)n2c(=O)[nH]c3cc(-c4cccc(F)c4F)ccc32)ccc1OC [Ex. 152, (S)-5-(2,3-difluorophenyl)-1-(1-(6-ethoxy-5-methoxypyridin-2-yl)-2-(methylsulfonyl)ethyl)-1H-benzo[d]imidazol-2(3H)-one]
PDE4 B1 inhibitory effect at 20 nM (PDE4B1): + | PDE4 A1 inhibitory effect at 20 nM (PDE4A1A): + | PDE4 D2 inhibitory effect at 20 nM (PDE4D2): +

CCOc1nc([C@@H](CS(C)(=O)=O)n2c(=O)n(CC(F)F)c3c(C)c(-c4ccccc4)cnc32)ccc1OC(C)C [Ex. 70, (S)-1-(2,2-difluoroethyl)-3-(1-(6-ethoxy-5-isopropoxypyridin-2-yl)-2-(methylsulfonyl)ethyl)-7-methyl-6-phenyl-1H-imidazo[4,5-b]pyridin-2(3H)-one]
PDE4 B1 inhibitory effect at 20 nM (PDE4B1): + | PDE4 A1 inhibitory effect at 20 nM (PDE4A1A): + | PDE4 D2 inhibitory effect at 20 nM (PDE4D2): +

CCOc1nc([C@@H](CS(C)(=O)=O)n2c(=O)[nH]c3cc(-c4ccc(F)cc4OC)ccc32)ccc1OC [Ex. 188, (S)-5-(4-fluoro-2-methoxyphenyl)-1-(1-(6-ethoxy-5-methoxypyridin-2-yl)-2-(methylsulfonyl)ethyl)-1H-benzo[d]imidazol-2(3H)-one]
PDE4 B1 inhibitory effect at 20 nM (PDE4B1): + | PDE4 A1 inhibitory effect at 20 nM (PDE4A1A): + | PDE4 D2 inhibitory effect at 20 nM (PDE4D2): +

CCOc1nc([C@@H](CS(C)(=O)=O)n2c(=O)[nH]c3cc(-c4ccc(OC)cc4F)ccc32)ccc1OC [Ex. 184, (S)-5-(2-fluoro-4-methoxyphenyl)-1-(1-(6-ethoxy-5-methoxypyridin-2-yl)-2-(methylsulfonyl)ethyl)-1H-benzo[d]imidazol-2(3H)-one]
PDE4 B1 inhibitory effect at 20 nM (PDE4B1): + | PDE4 A1 inhibitory effect at 20 nM (PDE4A1A): + | PDE4 D2 inhibitory effect at 20 nM (PDE4D2): +

CCOc1nc([C@@H](CS(C)(=O)=O)n2c(=O)[nH]c3c(C)c(-c4ccccc4CC)cnc32)ccc1OC [Ex. 10, (S)-3-(1-(6-ethoxy-5-methoxypyridin-2-yl)-2-(methylsulfonyl)ethyl)-6-(2-ethylphenyl)-7-methyl-1H-imidazo[4,5-b]pyridin-2(3H)-one]
inhibitory activity against PDE4B1 compared with Apremilast and WX011 (PDE4B1; [1]): significantly enhanced inhibitory activity | inhibitory activity against PDE4A1A compared with Apremilast and WX011 (PDE4A1A; [1]): significantly enhanced inhibitory activity | inhibitory activity against PDE4D2 compared with Apremilast and WX011 (PDE4D2; [1]): significantly enhanced inhibitory activity | IC50 (PDE4D2; read-out: PDE4 D2 inhibitory activity (IC50 value)): 2.8 nM

CCOc1nc([C@@H](CS(C)(=O)=O)n2c(=O)n(C)c3cc(-c4c(C)cccc4C)cnc32)ccc1OC [Ex. 106, (S)-6-(2,6-dimethylphenyl)-3-(1-(6-ethoxy-5-methoxypyridin-2-yl)-2-(methylsulfonyl)ethyl)-1-methyl-1H-imidazo[4,5-b]pyridin-2(3H)-one]
PDE4 B1 inhibitory effect at 20 nM (PDE4B1): + | PDE4 A1 inhibitory effect at 20 nM (PDE4A1A): + | PDE4 D2 inhibitory effect at 20 nM (PDE4D2): +

CCOc1nc([C@@H](CS(C)(=O)=O)n2c(=O)n(C)c3cc(-c4cccc(F)c4F)ccc32)ccc1OC [Ex. 153, (S)-5-(2,3-difluorophenyl)-1-(1-(6-ethoxy-5-methoxypyridin-2-yl)-2-(methylsulfonyl)ethyl)-3-methyl-1H-benzo[d]imidazol-2(3H)-one]
PDE4 B1 inhibitory effect at 20 nM (PDE4B1): + | PDE4 A1 inhibitory effect at 20 nM (PDE4A1A): + | PDE4 D2 inhibitory effect at 20 nM (PDE4D2): +

CCOc1nc([C@@H](CS(C)(=O)=O)n2c(=O)[nH]c3cc(-c4cc(F)c(F)cc4F)cnc32)ccc1OC [Ex. 96, (S)-6-(2,4,5-trifluorophenyl)-3-(1-(6-ethoxy-5-methoxypyridin-2-yl)-2-(methylsulfonyl)ethyl)-1H-imidazo[4,5-b]pyridin-2(3H)-one]
PDE4 B1 inhibitory effect at 20 nM (PDE4B1): + | PDE4 A1 inhibitory effect at 20 nM (PDE4A1A): + | PDE4 D2 inhibitory effect at 20 nM (PDE4D2): +
